Data published in patent US20200247800A1, “SUBSTITUTED BICYCLIC HETEROCYCLIC COMPOUNDS AS NADPH OXIDASE INHIBITORS” (Glenmark Pharmaceuticals S.A., priority 2017, published 2020).

Molecular target: T1, human NOX4 (Homo sapiens, UniProt Q9NPH5)
T1 construct: expressed in transfected cells; membrane fraction used
T1 sequence (Q9NPH5 1-578): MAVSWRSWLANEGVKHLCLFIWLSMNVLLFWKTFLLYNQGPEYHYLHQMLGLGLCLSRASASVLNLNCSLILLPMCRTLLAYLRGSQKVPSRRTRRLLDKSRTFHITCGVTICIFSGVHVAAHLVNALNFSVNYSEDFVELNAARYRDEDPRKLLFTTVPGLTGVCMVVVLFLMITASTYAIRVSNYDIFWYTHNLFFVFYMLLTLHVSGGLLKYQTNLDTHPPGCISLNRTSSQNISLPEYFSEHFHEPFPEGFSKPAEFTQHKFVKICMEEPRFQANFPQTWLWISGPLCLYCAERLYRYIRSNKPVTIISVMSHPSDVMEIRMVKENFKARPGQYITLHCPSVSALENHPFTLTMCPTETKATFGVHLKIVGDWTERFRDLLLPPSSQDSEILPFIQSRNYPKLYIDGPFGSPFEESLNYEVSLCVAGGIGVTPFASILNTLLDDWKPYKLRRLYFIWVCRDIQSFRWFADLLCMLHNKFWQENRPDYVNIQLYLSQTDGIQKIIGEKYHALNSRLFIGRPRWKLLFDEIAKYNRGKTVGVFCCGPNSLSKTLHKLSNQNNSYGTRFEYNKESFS
T1 sequence (P13498 1-195 partner): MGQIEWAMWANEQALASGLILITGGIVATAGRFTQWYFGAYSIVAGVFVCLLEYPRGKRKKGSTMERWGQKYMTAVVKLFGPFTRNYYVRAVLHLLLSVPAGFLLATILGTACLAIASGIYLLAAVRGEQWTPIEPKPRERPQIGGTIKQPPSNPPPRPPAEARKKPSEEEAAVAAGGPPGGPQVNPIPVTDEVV
Test: Cell free membrane based in vitro NOX4 assay: H2O2 production by membranes expressing human NOX4, measured with Amplex Red
Format: biochemical
Conditions: for inhibition at 1 µM: 1.0 μM compound, read-out: Percentage inhibition at 1.0 μM; for inhibition at 10 µM: 10.0 μM compound, read-out: Percentage inhibition at 10.0 μM; for IC50: class symbols
Procedure, shortened: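 IC50 came from concentration-response curves fitted as % of the inhibitor-free maximum. H2O2 formation was monitored for 10 min via Amplex Red/HRP fluorescence (544/590 nm) after NADPH start. Membranes from a stable hNOX4/HEK line had 20 min exposure to inhibitor beforehand at pH 7.4.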

Structure (SMILES)	inhibition at 1 µM	inhibition at 10 µM	IC50
Cc1nc2c(=O)c(O)c(-c3ccccc3Cl)[nH]c2s1 [Example 62, 5-(2-Chlorophenyl)-6-hydroxy-2-methyl[1,3]thiazolo[5,4-b]pyridin-7(4H)-one]	39%	98%	> 150 nM
CCn1nc(C)c2c(=O)c(O)c(-c3cc(CNC(=O)C(C)(C)C)ccc3F)[nH]c21 [Example 138, N-(3-(1-Ethyl-5-hydroxy-3-methyl-4-oxo-4,7-dihydro-1H-pyrazolo[3,4-b]pyridin-6-yl)-4-fluorobenzyl)pivalamide]	92.6%	85%	> 150 nM
COc1ccc(-c2[nH]c3c(c(C)nn3C3CC3)c(=O)c2O)c(F)c1 [Example 114, 1-Cyclopropyl-6-(2-fluoro-4-methoxyphenyl)-5-hydroxy-3-methyl-1H-pyrazolo[3,4-b]pyridin-4(7H)-one]	61%	69.9%	> 150 nM
O=c1c(O)c(-c2c(F)cccc2F)[nH]c2[nH]nc(C(F)(F)F)c12 [Example 98, 6-(2,6-Difluorophenyl)-5-hydroxy-3-(trifluoromethyl)-1H-pyrazolo[3,4-b]pyridin-4(7H)-one]	86.4%	93.4%	50 to 100 nM

Continued, values first:

inhibition at 1 µM	inhibition at 10 µM	IC50	Structure (SMILES)
95.2%	98.6%	50 to 100 nM	CCc1nn(CCn2cccn2)c2[nH]c(-c3ccccc3Cl)c(O)c(=O)c12 [Example 157, 1-(2-(1H-pyrazol-1-yl)ethyl)-6-(2-chlorophenyl)-3-ethyl-5-hydroxy-1H-pyrazolo[3,4-b]pyridin-4(7H)-one]
21.9%	13.5%	–	Cn1nc2[nH]c(-c3ccccc3Cl)c(O)c(=O)c2c1Cc1ccccc1F [Example 57, 6-(2-Chlorophenyl)-3-(2-fluorobenzyl)-5-hydroxy-2-methyl-2,7-dihydro-4H-pyrazolo[3,4-b]pyridin-4-one]
63.4%	76.3%	> 150 nM	Cc1cc(F)ccc1-n1nc(C)c2c(=O)c(O)c(-c3ccccc3Cl)[nH]c21 [Example 126, 6-(2-Chlorophenyl)-1-(4-fluoro-2-methylphenyl)-5-hydroxy-3-methyl-1,7-dihydro-4H-pyrazolo[3,4-b]pyridin-4-one]
82.8%	78%	100 to 150 nM	CCc1nn(CCN2C[C@@H](C)O[C@@H](C)C2)c2[nH]c(-c3ccccc3Cl)c(O)c(=O)c12 [Example 202, 6-(2-Chlorophenyl)-1-(2-((2R,6S)-2,6-dimethylmorpholino)ethyl)-3-ethyl-5-hydroxy-1H-pyrazolo[3,4-b]pyridin-4(7H)-one]
60.5%	82.1%	> 150 nM	CCn1nc(C(F)(F)F)c2c(=O)c(O)c(-c3ccccc3Cl)[nH]c21 [Example 109, 6-(2-Chlorophenyl)-1-ethyl-5-hydroxy-3-(trifluoromethyl)-1H-pyrazolo[3,4-b]pyridin-4(7H)-one]
